Like-named read-outs stand apart in the source and are kept apart here. Peptide text beside a SMILES is read from it. * marks the point of attachment. Cbz = O=C(OCc1ccccc1)*

One data set relates to ubiquitinated proteins. Kind of data set: Western blot of ubiquitinated proteins in HEK293 cell samples. To be noted: HEK293 samples from FIG. 4A, 24 hours, ubiquitin antibody. Type of data set: cell-based. How it is done: (§1) HEK293 cells were treated with 3 and 10 μM B10 for 24 hours. An equivalent volume of DMSO was used for control treatments. […] Briefly, cells were lysed in Mammalian-Protein Extraction Reagent (M-PER; Pierce, Rockford, Ill.) containing 1× protease inhibitor mixture (Calbiochem, Billerica, Mass.), 1 mM phenylmethylsulfonyl fluoride (PMSF) and 1× phosphatase inhibitor I and II cocktails (Sigma). Protein concentration was determined using the Coomassie (Bradford) Protein Assay Kit (Pierce). Samples were analyzed using TDP-43, FUS, and GAPDH antibodies by Western blotting. Drug treatment experiments were performed in triplicate. For ubiquitinated protein analysis upon MG132 treatment, ubiquitin antibody (Santa Cruz Biotechnology) was used. Statistical analysis was performed using Microsoft Excel.
A general note: A western blot detects proteins with antibodies after separation by electrophoresis.

A further data set deals with T1, TDP-43 (Mus musculus, UniProt Q921F2).
T1 construct: N9 cells expressing endogenous TDP-43 were treated with various concentrations of B10; endogenous in cells; host or cells: N9 mouse microglial cells
Kind of data set: InCell Western (ICW) drug screen for TDP-43 levels in N9 cells. Type of data set: cell-based. The conditions noted are these: for % TDP43 level: N9 cells treated 24 hours, DMSO vehicle control = 100. How it is done: To optimize the ICW technique for screening TDP-43 targeting drugs, N9 cells were seeded in a 96-well plate and processed for ICW by using various dilution of TDP-43 antibody.
For drug screening, N9 cells were treated with a panel of candidate drug molecules for 24 hours and the effect on TDP-43 levels was analyzed using the InCell Western assay.
To optimize TDP-43 targeting ICW, N9 cells were seeded in a 96-well plate and probed with different dilutions of TDP-43 antibody as previously described (Jinwal and Dickey, 2011). For the identification of candidate drug molecules, N9 cells were treated with an array of drugs for 24 hours and processed for ICW (Jinwal and Dickey, 2011). In brief, cells were fixed, washed with PBS and incubated in blocking buffer. Cells were then incubated in primary antibody to TDP-43 (1:1000) and GAPDH (1:3000) for overnight. After washing with 0.2% Tween-20 PBS, cells were incubated with fluorescently tagged secondary antibodies for 1 hour and 30 minutes. Fluorescence intensity was then recorded and quantified using the Odyssey Infrared Imaging System (LI-COR). ICW experiments were performed in duplicate.

The next data set relates to rats. The conditions noted are these: pre-treatment prior to administration of B10; cited from earlier work.
The target in data set [1] is T2, endogenous TDP-43 (Mus musculus, UniProt Q921F2).
T2 construct: N9 cells expressing endogenous TDP-43 were treated with various concentrations of B10; endogenous in cells; host or cells: N9 mouse microglial cells
The experiment in a line: Western blotting of endogenous TDP-43 in N9 cells, dose response. Type of data set: cell-based. The conditions noted are these: 3 μM, 24 hours, Western blot. How it is done: N9 cells were treated with different concentration of B10 for 24 hours and levels of endogenous TDP-43 were determined by Western blotting.
For dose response experiments, N9 cells were treated with different concentrations of B10 for 24 hours. […] An equivalent volume of DMSO was used for control treatments for both sets of experiments. […] Briefly, cells were lysed in Mammalian-Protein Extraction Reagent (M-PER; Pierce, Rockford, Ill.) containing 1× protease inhibitor mixture (Calbiochem, Billerica, Mass.), 1 mM phenylmethylsulfonyl fluoride (PMSF) and 1× phosphatase inhibitor I and II cocktails (Sigma). Protein concentration was determined using the Coomassie (Bradford) Protein Assay Kit (Pierce). Samples were analyzed for Myc and GAPDH by Western blotting. […] Drug treatment experiments were repeated at least two times.

Data set [2] has as its system Myc-tagged WT TDP-43, C25 mutant, M337V and Q331K. The experiment in a line: Western blotting of Myc-tagged WT and mutant TDP-43 transfected in HEK293 cells. The data set is classed as cell-based. To be noted: HEK293 cells transfected with Myc-tagged WT, 3 μM, 24 hours.
Another data set concerns HEK293 cells. Type of data set: cell-based. To be noted: human, 24 h. How it is done:
(§2) Whether B10 treatment causes cytotoxicity was next tested. The inventors performed the LDH assay with N9 and HEK293 cells. […] B10 causes ˜3% and ˜13% cytotoxicity at 3 and 10 μM in the HEK293 cells, respectively (FIG. 5B).
(§3) The LDH assay was performed using the CytoTox 96 Non-Radioactive Cytotoxicity Assay from Promega as per manufacturer's instructions. Briefly, N9 and HEK cells were treated with different concentrations of hexachlorophene for 24 hours. Cells treated with a lethal dose of 150 μM hexachlorophene were used as the maximal LDH release control. Culture supernatant was collected and centrifuged at 2000 rpm to pellet debris. 50 μl of supernatant from each sample was transferred to a flat-bottom 96 well plate. The Substrate Mix provided in the kit was reconstituted with Assay Buffer. 50 μl of the reconstituted Substrate Mix was added to the culture supernatant. The plate was incubated at room temperature, protected from light, for 30 minutes. 50 μl of Stop Solution was added to each well at the end of the incubation period. Absorbance was read at 490 nm. The experiment was performed in triplicate for each cell line. Statistical analysis was performed using Microsoft Excel.

A further data set concerns N9 cells. Type of data set: cell-based. To be noted: mouse, 24 h. How it is done: as §2, §3
In data set [3] the target is T3, endogenous TDP-43 (Homo sapiens, UniProt Q13148).
T3 construct: HEK293 cells expressing endogenous TDP-43 and FUS; endogenous in cells; host or cells: HEK293
Kind of data set: Western blotting of endogenous TDP-43 in HEK293 cells. The conditions noted are these: endogenous TDP-43, 3 μM, 24 hours, Western blot. Type of data set: cell-based. As to the method: as §1

For another data set, the system named is FUS (Fused in Sarcoma). The experiment in a line: Western blotting of endogenous FUS in HEK293 cells. The data set is classed as cell-based. How it is done: as §1
The next data set addresses T4, C25 mutant of TDP-43 (Homo sapiens, UniProt Q13148).
T4 construct: the C25 cleaved fragment that localizes to the cytosol; expressed in transfected cells; host or cells: HEK293
The experiment in a line: Immunofluorescence of cytoplasmic C25 mutant TDP-43 in HEK293 cells. The conditions noted are these: 3 μM, 24 hours. Type of data set: cell-based.

Data set [4] relates to C25-TDP-43 transgenic C. elegans. The experiment in a line: Liquid thrashing motility assay in C25-TDP-43 transgenic C. elegans. The data set is classed as in vivo. The conditions noted are these: C25 worms on NGM plates containing 5 μM or 10 μM B10. As to the method:
(§4) For in vivo studies the inventors used a C. elegans model expressing the C25 fragment to analyze changes in behavior and pathological TDP-43 upon B10 treatment.
(§5) The Solid Method of drug dosing was used in which age-synchronized C. elegans eggs were plated on Nematode Growth Media (NGM) plates containing DMSO vehicle or 5 μM B10 or 10 μM B10.
(§6) A behavioral assay that measures liquid thrashing ability was used to analyze the effect of B10 treatment on motility in age synchronized C25 animals. For microscopic analysis adult worms were fixed on slide and imaged using fluorescence microscopy.

A further data set concerns the target T5, C25-TDP-43 (Homo sapiens, UniProt Q13148).
T5 construct: a C. elegans model expressing the C25 fragment; expressed in transfected cells; host or cells: transgenic C. elegans (neurons)
The experiment in a line: Fluorescence microscopy of C25-TDP-43 aggregates in head neurons of transgenic C. elegans. To be noted: C25 worms. Type of data set: in vivo. As to the method: as §4, §5, §6

For data set [5] the following is noted: dose of about 10 mg/kg, transgenic TDP43 mouse model; cited from earlier work.
For data set [6], the system named is Wnt-β-catenin signaling pathway. To be noted: B lymphoma cells; cited from earlier work.
The target of another data set is T6, amyloid beta (Aβ) (Homo sapiens, UniProt P05067).
T6 construct: the amyloid protein (Aβ) which is a proteolytic product of a precursor protein of much larger size
To be noted: cited from earlier work.

Data set [7] relates to primary neuronal cultures. The conditions noted are these: cited from earlier work.

T1 sequence (Q921F2 whole entry): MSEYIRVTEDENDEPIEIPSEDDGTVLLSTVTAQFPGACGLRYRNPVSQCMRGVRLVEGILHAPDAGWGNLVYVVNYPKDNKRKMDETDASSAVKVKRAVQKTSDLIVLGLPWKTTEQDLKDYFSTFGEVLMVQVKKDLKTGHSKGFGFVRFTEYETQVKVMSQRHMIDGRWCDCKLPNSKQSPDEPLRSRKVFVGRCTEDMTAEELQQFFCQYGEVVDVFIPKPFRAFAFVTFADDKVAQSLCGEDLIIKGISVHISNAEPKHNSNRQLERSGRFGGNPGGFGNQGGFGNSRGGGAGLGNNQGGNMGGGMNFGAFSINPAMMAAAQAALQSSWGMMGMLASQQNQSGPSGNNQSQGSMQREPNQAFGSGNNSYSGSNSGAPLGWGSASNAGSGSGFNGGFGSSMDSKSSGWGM
T3 sequence (Q13148 whole entry): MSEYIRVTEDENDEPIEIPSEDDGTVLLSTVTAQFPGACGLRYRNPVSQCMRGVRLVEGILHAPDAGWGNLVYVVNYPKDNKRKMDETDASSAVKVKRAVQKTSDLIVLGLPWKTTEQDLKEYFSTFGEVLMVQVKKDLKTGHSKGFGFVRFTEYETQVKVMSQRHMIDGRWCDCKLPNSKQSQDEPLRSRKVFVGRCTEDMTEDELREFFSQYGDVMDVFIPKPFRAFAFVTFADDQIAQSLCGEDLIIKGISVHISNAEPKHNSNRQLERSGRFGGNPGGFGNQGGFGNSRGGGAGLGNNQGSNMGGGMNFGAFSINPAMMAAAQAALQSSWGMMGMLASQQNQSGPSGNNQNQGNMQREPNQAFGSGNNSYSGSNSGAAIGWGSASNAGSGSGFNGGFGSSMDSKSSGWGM
T2 sequence (Q921F2 whole entry): as the sequence (Q921F2 whole entry) above
T5 sequence (Q13148 219-414 limits assumed): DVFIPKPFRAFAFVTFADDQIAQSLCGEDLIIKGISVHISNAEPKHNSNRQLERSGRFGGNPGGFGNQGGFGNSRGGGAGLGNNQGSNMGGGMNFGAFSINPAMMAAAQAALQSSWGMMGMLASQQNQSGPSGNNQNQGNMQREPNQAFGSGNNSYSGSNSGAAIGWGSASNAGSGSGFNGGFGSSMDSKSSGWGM
T4 sequence (Q13148 219-414 limits assumed, change not shown): as the sequence (Q13148 219-414 limits assumed) above
T6 sequence (P05067 672-713 limits assumed): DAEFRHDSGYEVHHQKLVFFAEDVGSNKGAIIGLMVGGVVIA
Experimental for C25 mutant of TDP-43: 24 hours after transfection, the medium was replaced and cells were treated with either DMSO or 3 μM B10 for 24 hours. […] Following three washes in PBS, cells were incubated in blocking buffer (1% BSA, 0.1% Tween-20 in PBS) for one hour. A mouse monoclonal antibody to the Myc tag at a dilution of 1:400 was applied for 1 hour. After three washes in PBS, cells were incubated with an Alexa488 tagged goat anti-mouse IgG secondary antibody at 1:800 for 1 hour. […] Coverslips were mounted on slides using Fluoromount G. Imaging was performed with a Zeiss AxioVision imager.

In the case of `CC(C)C[C@@H](C=O)NC(=O)[C@H](CC(C)C)NC(=O)[C@H](CC(C)C)NC(=O)OCc1ccccc1` [MG132] (Cbz-Leu-Leu-Leu-aldehyde), in the data set with ubiquitinated proteins, the “levels of ubiquitinated proteins” value is “increase in ubiquitinated proteins”.

For `OCCN1CCN(CCCN2c3ccccc3Sc3ccc(Cl)cc32)CC1` [B5, Perphenazine], the “% TDP43 level” value on TDP-43 is on record as 85%.

With `CCCC(C(=O)OCCN(CC)CC)(c1ccccc1)c1ccccc1.Cl` [SKF-525A, 2-diethylaminoethyl-2,2-diphenylvalerate-Hcl], the “protection from toxicity induced by B10” value in the data set on rats is “lessened toxicity”.

For the molecule `NS(=O)(=O)c1cc2c(cc1C(F)(F)F)NCNS2(=O)=O` [B8, Hydroflumethiazide], on TDP-43, the “% TDP43 level” value is recorded as 89%.

For the molecule `Oc1c(Cl)cc(Cl)c(Cl)c1Cc1c(O)c(Cl)cc(Cl)c1Cl` [B10, Hexachlorophene], on TDP-43, the “% TDP43 level” value was found to be 63%. On TDP-43 (N9 cells, 24 hours), the “decrease in levels of TDP-43 compared to the control” value is listed as roughly 40%. Besides, on endogenous TDP-43 [1], the “reduction of endogenous TDP-43 levels” value is reported as “approximately 50%”. Moreover, in [2], the “decrease in levels of TDP-43 and its mutants” value was “approximately 50%”. Also, the “cytotoxicity (LDH release)” value with HEK293 cells (3 μM) is reported as roughly 3%; with HEK293 cells (10 μM) it was roughly 13%; in the data set on N9 cells (3 μM), roughly 6%; in the data set with N9 cells (10 μM), roughly 23%. For the same molecule, the “reduction of TDP-43 levels” value on endogenous TDP-43 [3] is roughly 50%. Further, in the data set with FUS (Fused in Sarcoma), the “effect on levels of FUS” value is on record as “increases levels of FUS”. In addition, in the data set with FUS (Fused in Sarcoma) (3 μM, 24 hours, Western blot), the “increase of FUS levels” value was roughly 300%. Moreover, at C25 mutant of TDP-43, the “amount of cytoplasmic C25 mutant TDP-43” value was “decreases the amount of cytoplasmic C25 mutant TDP-43”. Also, in the data set with ubiquitinated proteins, the “levels of ubiquitinated proteins” value is “slight increase in ubiquitinated proteins”. Besides, in [4], the “motility (liquid thrashing)” value is recorded as “improved motility of C25 worms”. Moreover, the “accumulation of TDP-43 in neurons in the head region” value at C25-TDP-43 is “decreased the accumulation of TDP-43 in the neurons in the head region of C25 worms”. In addition, in [5], the brain permeability was 50%. For the same molecule, the “effect on Wnt-β-catenin signaling pathway” value in [6] is “inhibit the Wnt-β-catenin signaling pathway in B lymphoma cells”. Also, the “effect on Aβ fibril formation” value at amyloid beta (Aβ) is recorded as “inhibit amyloid beta (Aβ) fibril formation”. Moreover, in data set [7], the “protection from Aβ-induced toxicity” value was “protect primary neuronal cultures from Aβ-induced toxicity”.

Take `CO[C@H]1/C=C/O[C@@]2(C)Oc3c(C)c(O)c4c(O)c(c(/C=N/N5CCN(C)CC5)c(O)c4c3C2=O)NC(=O)/C(C)=C\C=C\[C@H](C)[C@H](O)[C@@H](C)[C@@H](O)[C@@H](C)[C@H](OC(C)=O)[C@@H]1C` [B6, Rifampicin]: at TDP-43, the “% TDP43 level” value is 103%.

Regarding `C[N+](C)(C)C[C@H](O)CC(=O)[O-]` [L-carnitine], the “protection from toxicity induced by B10” value in the data set with rats is reported as “protected rats from the toxicity of B10”.

Regarding `Nc1ccc(S(=O)(=O)c2ccc(N)cc2)cc1` [B7, Dapsone], the “% TDP43 level” value at TDP-43 was determined as 100%.

For the molecule `CCOc1ccc2c(c1)C(C)=CC(C)(C)N2` [ethoxyquin], the “protection from toxicity induced by B10” value with rats was “protects rats from toxicity induced by B10”.

These data come from patent US9844519B1, “Method of treating TDP-43 proteinopathies using hexachlorophene” (University of South Florida, priority 2014, dated 2017).
